Source: the NIST ThermoML archive (doi:10.1021/je301123j)

Experiment: xn = mol fraction of the nth substance listed
Details: for surface tension liquid-gas: Ring tensiometer; for mass density / speed of sound / viscosity: 100 kPa, Liquid

CCN1CCCC1=O [1-ethyl-2-pyrrolidinone] + NCCO
Details | mass density [kg/m3] | speed of sound [m/s] | surface tension liquid-gas [mN/m] | viscosity [mPa·s]
293.15 K, x1 = 0.1 | 1014.83 | 1694.5 | 44.9 | 16.56
293.15 K, x1 = 0.2002 | 1012.06 | 1652.1 | 42.4 | 11.56
293.15 K, x1 = 0.2999 | 1008.77 | 1621.1 | 41.1 | 8.317
293.15 K, x1 = 0.4002 | 1006.13 | 1596 | 39.8 | 6.255
293.15 K, x1 = 0.4999 | 1002.53 | 1575.8 | 39.1 | 4.742
293.15 K, x1 = 0.5996 | 999.47 | 1554.4 | 38.3 | 3.762
293.15 K, x1 = 0.7002 | 998.41 | 1540.5 | 37.7 | 3.101
293.15 K, x1 = 0.7999 | 997.76 | 1529.1 | 37.3 | 2.641
293.15 K, x1 = 0.8997 | 997.35 | 1519.5 | 37.1 | 2.325
293.15 K, x1 = 1 | 997.91 | 1513.2 | 36.5 | 2.132
303.15 K, x1 = 0.1 | 1006.71 | 1661.1 | 43.7 | 10.66
303.15 K, x1 = 0.2002 | 1003.8 | 1617 | 41.2 | 7.68
303.15 K, x1 = 0.2999 | 1000.38 | 1582.4 | 39.8 | 6.051
303.15 K, x1 = 0.4002 | 997.65 | 1560.4 | 38.5 | 4.76
303.15 K, x1 = 0.4999 | 993.9 | 1539.5 | 37.6 | 3.526
303.15 K, x1 = 0.5996 | 990.78 | 1517.3 | 36.7 | 2.912
303.15 K, x1 = 0.7002 | 989.74 | 1503.1 | 36.1 | 2.446
303.15 K, x1 = 0.7999 | 989.12 | 1491.9 | 36.2 | 2.147
303.15 K, x1 = 0.8997 | 988.75 | 1481.7 | 35.7 | 1.918
303.15 K, x1 = 1 | 989.34 | 1475 | 35.2 | 1.777
313.15 K, x1 = 0.1 | 998.53 | 1628 | 42.7 | 7.237
313.15 K, x1 = 0.2002 | 995.42 | 1582.8 | 40.2 | 5.477
313.15 K, x1 = 0.2999 | 991.88 | 1552.5 | 38.7 | 4.386
313.15 K, x1 = 0.4002 | 989.14 | 1527.9 | 37 | 3.553
313.15 K, x1 = 0.4999 | 985.23 | 1502.9 | 35.9 | 2.733
313.15 K, x1 = 0.5996 | 982.08 | 1480.5 | 34.9 | 2.322
313.15 K, x1 = 0.7002 | 981.06 | 1466.1 | 34.5 | 1.99
313.15 K, x1 = 0.7999 | 980.46 | 1454.9 | 35 | 1.775
313.15 K, x1 = 0.8997 | 980.14 | 1444.2 | 34.6 | 1.616
313.15 K, x1 = 1 | 980.76 | 1437.6 | 34.2 | 1.515
323.15 K, x1 = 0.1 | 990.31 | 1594.2 | – | 5.201
323.15 K, x1 = 0.2002 | 986.95 | 1549.2 | – | 4.011
323.15 K, x1 = 0.2999 | 983.29 | 1517.9 | – | 3.311
323.15 K, x1 = 0.4002 | 980.53 | 1493.2 | – | 2.734
323.15 K, x1 = 0.4999 | 976.53 | 1467 | – | 2.183
323.15 K, x1 = 0.5996 | 973.35 | 1443.8 | – | 1.884
323.15 K, x1 = 0.7002 | 972.34 | 1429.5 | – | 1.659
323.15 K, x1 = 0.7999 | 971.78 | 1418 | – | 1.503
323.15 K, x1 = 0.8997 | 971.5 | 1407.6 | – | 1.384
323.15 K, x1 = 1 | 972.16 | 1400.6 | – | 1.31

CCN1CCCC1=O [1-ethyl-2-pyrrolidinone] + OCCN(CCO)CCO
Details | mass density [kg/m3] | speed of sound [m/s] | surface tension liquid-gas [mN/m] | viscosity [mPa·s]
293.15 K, x1 = 0.1001 | 1112.5 | 1611.4 | 44.7 | 570.35
293.15 K, x1 = 0.2 | 1101.3 | 1598.1 | 43.4 | 312.31
293.15 K, x1 = 0.3 | 1089.95 | 1585.4 | 42 | 164.25
293.15 K, x1 = 0.4004 | 1077.59 | 1574.5 | 40.9 | 81.22
293.15 K, x1 = 0.5001 | 1066.06 | 1565.5 | 40.1 | 41.49
293.15 K, x1 = 0.6002 | 1053.3 | 1555.6 | 39.2 | 21.52
293.15 K, x1 = 0.7002 | 1040.32 | 1545.9 | 38.3 | 11.54
293.15 K, x1 = 0.8 | 1026.31 | 1536.1 | 37.8 | 6.382
293.15 K, x1 = 0.8998 | 1012.14 | 1525.5 | 36.9 | 3.627
293.15 K, x1 = 1 | 997.91 | 1513.2 | 36.5 | 2.132
303.15 K, x1 = 0.1001 | 1106.6 | 1588.7 | 43.9 | 252.99
303.15 K, x1 = 0.2 | 1095.17 | 1575.4 | 42.3 | 151.13
303.15 K, x1 = 0.3 | 1083.52 | 1562.2 | 41.3 | 85.6
303.15 K, x1 = 0.4004 | 1070.78 | 1548.9 | 40.2 | 46.14
303.15 K, x1 = 0.5001 | 1058.92 | 1538.5 | 39.2 | 25.54
303.15 K, x1 = 0.6002 | 1045.86 | 1526.5 | 38.6 | 14.29
303.15 K, x1 = 0.7002 | 1032.59 | 1514.2 | 37.5 | 8.268
303.15 K, x1 = 0.8 | 1018.3 | 1502.2 | 36.7 | 4.866
303.15 K, x1 = 0.8998 | 1003.86 | 1490.5 | 36 | 2.902
303.15 K, x1 = 1 | 989.34 | 1475 | 35.2 | 1.777
313.15 K, x1 = 0.1001 | 1100.7 | 1569.8 | 43 | 132.88
313.15 K, x1 = 0.2 | 1088.99 | 1555.1 | 41.6 | 82.06
313.15 K, x1 = 0.3 | 1076.98 | 1540.4 | 40.6 | 47.47
313.15 K, x1 = 0.4004 | 1063.92 | 1524.8 | 39.4 | 28.4
313.15 K, x1 = 0.5001 | 1051.74 | 1512.2 | 38.3 | 16.84
313.15 K, x1 = 0.6002 | 1038.43 | 1497.6 | 37.6 | 10.07
313.15 K, x1 = 0.7002 | 1024.86 | 1483.1 | 36.4 | 6.178
313.15 K, x1 = 0.8 | 1010.29 | 1468.6 | 35.8 | 3.794
313.15 K, x1 = 0.8998 | 995.57 | 1456.6 | 35 | 2.379
313.15 K, x1 = 1 | 980.76 | 1437.6 | 34.2 | 1.515
323.15 K, x1 = 0.1001 | 1094.74 | 1551.9 | – | 75.13
323.15 K, x1 = 0.2 | 1082.69 | 1534.9 | – | 46.57
323.15 K, x1 = 0.3 | 1070.36 | 1517.4 | – | 29.62
323.15 K, x1 = 0.4004 | 1057 | 1500.3 | – | 18.7
323.15 K, x1 = 0.5001 | 1044.54 | 1485.3 | – | 11.73
323.15 K, x1 = 0.6002 | 1030.97 | 1469.1 | – | 7.428
323.15 K, x1 = 0.7002 | 1017.11 | 1452.3 | – | 4.758
323.15 K, x1 = 0.8 | 1002.27 | 1435.5 | – | 3.06
323.15 K, x1 = 0.8998 | 987.27 | 1422.3 | – | 1.994
323.15 K, x1 = 1 | 972.16 | 1400.6 | – | 1.31

CCN1CCCC1=O [1-ethyl-2-pyrrolidinone] + OCCNCCO
Details | mass density [kg/m3] | speed of sound [m/s] | surface tension liquid-gas [mN/m] | viscosity [mPa·s]
293.15 K, x1 = 0.1 | 1084.34 | 1700.4 | 44.5 | 462.69
293.15 K, x1 = 0.2005 | 1072.76 | 1666.7 | 42.8 | 227.23
293.15 K, x1 = 0.3001 | 1061.83 | 1638.2 | 41.2 | 109.6
293.15 K, x1 = 0.4002 | 1051.18 | 1611.7 | 40.1 | 51.6
293.15 K, x1 = 0.4999 | 1040.9 | 1589.2 | 39.2 | 26.02
293.15 K, x1 = 0.6 | 1031.22 | 1569.3 | 38.1 | 13.84
293.15 K, x1 = 0.7001 | 1022.09 | 1552.5 | 37.8 | 8.154
293.15 K, x1 = 0.8001 | 1013.33 | 1538.4 | 37.2 | 4.999
293.15 K, x1 = 0.8995 | 1005.23 | 1524.5 | 36.5 | 3.117
293.15 K, x1 = 1 | 997.91 | 1513.2 | 36.5 | 2.132
303.15 K, x1 = 0.1 | 1077.54 | 1672.2 | 43.6 | 211.41
303.15 K, x1 = 0.2005 | 1065.85 | 1637.9 | 41.3 | 110.73
303.15 K, x1 = 0.3001 | 1054.58 | 1607.8 | 40.1 | 55.57
303.15 K, x1 = 0.4002 | 1043.68 | 1581 | 39.1 | 29.59
303.15 K, x1 = 0.4999 | 1033.22 | 1557.4 | 38.4 | 16.21
303.15 K, x1 = 0.6 | 1023.25 | 1536.3 | 37.1 | 9.351
303.15 K, x1 = 0.7001 | 1013.95 | 1518.1 | 36.7 | 5.87
303.15 K, x1 = 0.8001 | 1005.2 | 1503.6 | 36.2 | 3.826
303.15 K, x1 = 0.8995 | 996.81 | 1487.8 | 35.3 | 2.496
303.15 K, x1 = 1 | 989.34 | 1475 | 35.2 | 1.777
313.15 K, x1 = 0.1 | 1070.86 | 1645.8 | 42 | 108.68
313.15 K, x1 = 0.2005 | 1058.79 | 1610.1 | 40.4 | 57.66
313.15 K, x1 = 0.3001 | 1047.53 | 1578.7 | 38.8 | 32.13
313.15 K, x1 = 0.4002 | 1036.08 | 1550.5 | 38.3 | 18.38
313.15 K, x1 = 0.4999 | 1025.43 | 1526.2 | 37 | 10.8
313.15 K, x1 = 0.6 | 1015.25 | 1503.7 | 36.3 | 6.732
313.15 K, x1 = 0.7001 | 1005.78 | 1484.4 | 35.9 | 4.419
313.15 K, x1 = 0.8001 | 996.9 | 1469.1 | 34.8 | 3.014
313.15 K, x1 = 0.8995 | 988.38 | 1451.6 | 34.4 | 2.058
313.15 K, x1 = 1 | 980.76 | 1437.6 | 34.2 | 1.515
323.15 K, x1 = 0.1 | 1064.04 | 1619.5 | – | 57.82
323.15 K, x1 = 0.2005 | 1051.64 | 1582.5 | – | 33.78
323.15 K, x1 = 0.3001 | 1039.8 | 1550 | – | 20.16
323.15 K, x1 = 0.4002 | 1028.42 | 1519.9 | – | 12.28
323.15 K, x1 = 0.4999 | 1017.57 | 1495.1 | – | 7.624
323.15 K, x1 = 0.6 | 1007.21 | 1471 | – | 5.011
323.15 K, x1 = 0.7001 | 997.61 | 1450.7 | – | 3.439
323.15 K, x1 = 0.8001 | 988.58 | 1434.7 | – | 2.429
323.15 K, x1 = 0.8995 | 979.92 | 1415.6 | – | 1.734
323.15 K, x1 = 1 | 972.16 | 1400.6 | – | 1.31
